The results in this text go back to US10336762B2 (priority 2017, dated 2019).

As usually defined, the pIC50 is −log10 of the IC50, conventionally taken in molar units. The term pEC50 denotes −log10 of the EC50, conventionally taken in molar units.

For assay [1], the target named is IRAK4 enzyme (Homo sapiens (Human), UniProt Q9NWZ3). Put plainly: biochemical. The settings on record: IRAK4 enzyme, TR-FRET, 500 μM ATP. The format is biochemical. For orientation: Time-resolved FRET reads energy transfer from a long-lived donor to a nearby acceptor.
IRAK4 enzyme, sequence (Q9NWZ3 whole entry): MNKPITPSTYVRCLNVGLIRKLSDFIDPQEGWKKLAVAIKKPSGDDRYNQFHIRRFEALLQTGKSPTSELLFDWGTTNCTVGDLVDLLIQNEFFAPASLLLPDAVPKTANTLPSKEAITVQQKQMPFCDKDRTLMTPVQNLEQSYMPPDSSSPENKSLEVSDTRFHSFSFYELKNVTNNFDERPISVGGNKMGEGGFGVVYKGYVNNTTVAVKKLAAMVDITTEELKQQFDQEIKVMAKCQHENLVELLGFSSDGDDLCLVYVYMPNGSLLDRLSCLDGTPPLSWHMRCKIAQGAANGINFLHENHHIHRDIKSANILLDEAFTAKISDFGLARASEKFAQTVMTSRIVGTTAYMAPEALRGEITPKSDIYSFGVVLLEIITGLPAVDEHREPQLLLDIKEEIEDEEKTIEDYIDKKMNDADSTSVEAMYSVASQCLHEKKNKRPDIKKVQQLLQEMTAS
The test system of assay [2] is TNFα. Put plainly: cells. The settings on record: Homo sapiens, Monocyte, LPS-stimulated human monocytes, TNFα by TR-FRET; read-out: EC50 TNF. Type of assay: cell-based, human.

pEC50, pIC50: −log10 of the molar value.

As to `COC(=O)NC[C@H]1C[C@H](Nc2cc(-c3ccc4cc(C#N)cnn34)ncc2C(=O)NCC(=O)C(C)(C)O)C1` [Example 815, methyl (((1r,3r)-3-((2-(3-cyanopyrrolo[1,2-b]pyridazin-7-yl)-5-((3-hydroxy-3-methyl-2-oxobutyl)carbamoyl)pyridin-4-yl)amino)cyclo-butyl)methyl)carbamate], the negative logarithm of the IC50 (pIC50) in assay [1] was more than 9.00. Further, the pEC50 in assay [2] was 7.82.

On to `COC(=O)NC[C@H]1C[C@H](Nc2cc(-c3ccc4cc(C#N)cnn34)ncc2C(=O)NCCC(C)(C)NC(=O)OC(C)(C)C)C1` [Example 816, methyl (((1r,3r)-3-((5-((3-((tert-butoxy-carbonyl)amino)-3-methylbutyl)carbamoyl)-2-(3-cyanopyrrolo[1,2-b]pyridazin-7-yl)pyridin-4-yl)amino)cyclobutyl)methyl)carbamate], for which the negative-log IC50 (pIC50) in assay [1] was more than 9.00. In addition, the pEC50 in assay [2] is 7.39.

On to `CC(C)Nc1cc(-c2ccc3cccnn23)ncc1C(=O)NC[C@@H](F)C(C)(C)O` [Example 817, (R)-N-(2-fluoro-3-hydroxy-3-methylbutyl)-4-(isopropyl-amino)-6-(pyrrolo[1,2-b]pyridazin-7-yl)nicotinamide], for which the negative-log IC50 (pIC50) in assay [1] is 8.22. Further, the negative logarithm of the EC50 (pEC50) in assay [2] is 6.78.

On to `COC(=O)NC[C@H]1C[C@H](Nc2cc(-c3ccc4cccnn34)ncc2C(=O)NC[C@@H](F)C(C)(C)O)C1` [Example 818, methyl (((1R,3r)-3-((5-(((R)-2-fluoro-3-hydroxy-3-methylbutyl)carbamoyl)-2-(pyrrolo[1,2-b]pyridazin-7-yl)pyridin-4-yl)amino)cyclo-butyl)methyl)carbamate], for which the pIC50 in assay [1] is 8.40. The negative logarithm of the EC50 (pEC50) in assay [2] is 6.65.

Regarding `COC(=O)NC[C@H]1C[C@H](Nc2cc(-c3ccc4cc(C#N)cnn34)ncc2C(=O)NCCC(C)(C)N)C1` [Example 819, methyl (((1r,3r)-3-((5-((3-amino-3-methylbutyl)carbamoyl)-2-(3-cyano-pyrrolo[1,2-b]pyridazin-7-yl)pyridin-4-yl)amino)cyclo-butyl)methyl)carbamate], the pIC50 in assay [1] was more than 9.00. Also, the pEC50 in assay [2] was 7.57.

Take `CC(C)(O)[C@H](F)CNC(=O)c1cnc(-c2ccc3cc(C#N)cnn23)cc1Nc1ccc2ncccc2c1` [Example 820, (R)-6-(3-cyanopyrrolo[1,2-b]pyridazin-7-yl)-N-(2-fluoro-3-hydroxy-3-methylbutyl)-4-(quinolin-6-ylamino)nicotinamide]: the pIC50 in assay [1] is more than 9.00. In assay [2], the negative-log EC50 (pEC50) was 7.23.

In turn, `CC(C)(O)[C@H](F)CNC(=O)c1cnc(-c2ccc3cc(C#N)cnn23)cc1Nc1ccc2cnccc2n1` [Example 821, (R)-4-((1,6-naphthyridin-2-yl)amino)-6-(3-cyano-pyrrolo[1,2-b]pyridazin-7-yl)-N-(2-fluoro-3-hydroxy-3-methylbutyl)nicotinamide] gave a pIC50 in assay [1] of more than 9.00. Also, in assay [2], the negative logarithm of the EC50 (pEC50) is 7.29.

`CC(C)(O)[C@H](F)CNC(=O)c1cnc(-c2ccc3cc(C#N)cnn23)cc1N[C@H]1CC[C@H](N2CCOCC2)CC1` [Example 822, 6-(3-cyanopyrrolo[1,2-b]pyridazin-7-yl)-N-((R)-2-fluoro-3-hydroxy-3-methylbutyl)-4-(((1r,4R)-4-morpholinocyclohexyl)amino)nicotinamide]: the negative logarithm of the IC50 (pIC50) in assay [1] was 9.00. In assay [2], the pEC50 is 7.14.

On to `COCC(=O)NC[C@H]1C[C@H](Nc2cc(-c3ccc4cc(C#N)cnn34)ncc2C(=O)NC[C@@H](F)C(C)(C)O)C1` [Example 823, 6-(3-cyanopyrrolo[1,2-b]pyridazin-7-yl)-N-((R)-2-fluoro-3-hydroxy-3-methylbutyl)-4-(((1r,3R)-3-((2-methoxyacetamido)methyl)cyclobutyl)amino)nicotinamide], for which, in assay [1], the negative logarithm of the IC50 (pIC50) was more than 9.00. In assay [2], the pEC50 is 7.33.

For `CC(C)(C)C(=O)NC[C@H]1C[C@H](Nc2cc(-c3ccc4cc(C#N)cnn34)ncc2C(=O)NC[C@@H](F)C(C)(C)O)C1` [Example 824, 6-(3-cyanopyrrolo[1,2-b]pyridazin-7-yl)-N-((R)-2-fluoro-3-hydroxy-3-methylbutyl)-4-(((1r,3R)-3-(pivalamidomethyl)cyclo-butyl)amino)nicotinamide], in assay [1], the negative-log IC50 (pIC50) is more than 9.00. The pEC50 in assay [2] is 7.41.

The compound `CCCC(=O)NC[C@H]1C[C@H](Nc2cc(-c3ccc4cc(C#N)cnn34)ncc2C(=O)NC[C@@H](F)C(C)(C)O)C1` [Example 825, 4-(((1r,3R)-3-(butyramidomethyl)cyclo-butyl)amino)-6-(3-cyano-pyrrolo[1,2-b]pyridazin-7-yl)-N-((R)-2-fluoro-3-hydroxy-3-methylbutyl) nicotinamide] had a pIC50 in assay [1] of more than 9.00. Moreover, the pEC50 in assay [2] was 7.32.

For `CC(C)CC(=O)NC[C@H]1C[C@H](Nc2cc(-c3ccc4cc(C#N)cnn34)ncc2C(=O)NC[C@@H](F)C(C)(C)O)C1` [Example 826, 6-(3-cyanopyrrolo[1,2-b]pyridazin-7-yl)-N-((R)-2-fluoro-3-hydroxy-3-methylbutyl)-4-(((1r,3R)-3-((3-methylbutanamido)methyl)cyclobutyl)amino)nicotinamide], in assay [1], the pIC50 was more than 9.00. For the same compound, the pEC50 in assay [2] is 7.49.

In turn, `CC1(C(=O)NC[C@H]2C[C@H](Nc3cc(-c4ccc5cc(C#N)cnn45)ncc3C(=O)NC[C@@H](F)C(C)(C)O)C2)CC1` [Example 827, 6-(3-cyanopyrrolo[1,2-b]pyridazin-7-yl)-N-((R)-2-fluoro-3-hydroxy-3-methylbutyl)-4-(((1r,3R)-3-((1-methylcyclopropane-1-carboxamido)methyl)cyclo-butyl)amino)nicotinamide] showed a pIC50 in assay [1] of more than 9.00. In assay [2], the negative-log EC50 (pEC50) was 7.82.

In assay [1], `CC(C)(O)[C@H](F)CNC(=O)c1cnc(-c2ccc3cc(C#N)cnn23)cc1N[C@H]1C[C@H](CNC(=O)C2(F)CC2)C1` [Example 828, 6-(3-cyanopyrrolo[1,2-b]pyridazin-7-yl)-N-((R)-2-fluoro-3-hydroxy-3-methylbutyl)-4-(((1r,3R)-3-((1-fluorocyclopropane-1-carboxamido)methyl)cyclobutyl)amino) nicotinamide] had a negative logarithm of the IC50 (pIC50) of more than 9.00. In assay [2], the pEC50 was 7.92.

In assay [1], `CC(C)(O)[C@H](F)CNC(=O)c1cnc(-c2ccc3cc(C#N)cnn23)cc1N[C@H]1C[C@H](CNC(=O)C2(C(F)(F)F)CC2)C1` [Example 829, 6-(3-cyanopyrrolo[1,2-b]pyridazin-7-yl)-N-((R)-2-fluoro-3-hydroxy-3-methylbutyl)-4-(((1r,3R)-3-((1-(trifluoromethyl)cyclopropane-1-carboxamido)methyl)cyclobutyl)amino) nicotinamide] had a pIC50 of more than 9.00. Moreover, the negative logarithm of the EC50 (pEC50) in assay [2] is 7.64.

In assay [1], `COC(=O)NC[C@H]1C[C@H](Nc2cc(-c3ccc4cc(C#N)cnn34)ncc2C(=O)NC2CCC(NC(=O)C3CC3)CC2)C1` (stereo partly drawn) [Example 830, methyl (((1R,3r)-3-((2-(3-cyanopyrrolo[1,2-b]pyridazin-7-yl)-5-(((1r,4R)-4-(cyclopropanecarboxamido)cyclohexyl)carbamoyl)pyridin-4-yl)amino)cyclobutyl)methyl)carbamate] had a pIC50 of more than 9.00. Besides, in assay [2], the pEC50 was 7.64.

On to `CC(C)(O)[C@H](F)CNC(=O)c1cnc(-c2ccc3cc(C#N)cnn23)cc1N[C@H]1C[C@H](CNS(C)(=O)=O)C1` [Example 831, 6-(3-cyanopyrrolo[1,2-b]pyridazin-7-yl)-N-((R)-2-fluoro-3-hydroxy-3-methylbutyl)-4-(((1r,3R)-3-(methylsulfonamido-methyl)cyclobutyl)amino)nicotinamide], for which the pIC50 in assay [1] is more than 9.00. The negative-log EC50 (pEC50) in assay [2] was 7.31.

As for `CC(C)(O)[C@H](F)CNC(=O)c1cnc(-c2ccc3cc(C#N)cnn23)cc1NC1CCC2(CCC(=O)N2)CC1` (stereo partly drawn) [Example 832, 6-(3-cyanopyrrolo[1,2-b]pyridazin-7-yl)-N-((R)-2-fluoro-3-hydroxy-3-methylbutyl)-4-(((5R,8r)-2-oxo-1-azaspiro[4.5]decan-8-yl)amino) nicotinamide], the negative-log IC50 (pIC50) in assay [1] is 9.00. Moreover, the pEC50 in assay [2] was 6.88.

Compound `CC(C)(O)[C@H](F)CNC(=O)c1cnc(-c2ccc3cc(C#N)cnn23)cc1NC12CC(CNC(=O)C3CC3(F)F)(C1)C2` (stereo partly drawn) [Example 833, 6-(3-cyanopyrrolo[1,2-b]pyridazin-7-yl)-4-((3-(((R)-2,2-difluorocyclo-propane-1-carboxamido)methyl)bicyclo[1.1.1]pentan-1-yl)amino)-N-((R)-2-fluoro-3-hydroxy-3-methylbutyl)nicotinamide] had a pIC50 in assay [1] of 9.00. The negative-log EC50 (pEC50) in assay [2] was 6.72.

On to `COC(=O)NCc1ccc(Nc2cc(-c3ccc4cc(C#N)cnn34)ncc2C(=O)NC[C@@H](F)C(C)(C)O)cc1F` [Example 834, (R)-methyl (4-((2-(3-cyano-pyrrolo[1,2-b]pyridazin-7-yl)-5-((2-fluoro-3-hydroxy-3-methylbutyl)carbamoyl)pyridin-4-yl)amino)-2-fluorobenzyl)carbamate], for which, in assay [1], the pIC50 was more than 9.00. In assay [2], the negative-log EC50 (pEC50) was 7.64.

Take `CCOc1cncc(Nc2cc(-c3ccc4cc(C#N)cnn34)ncc2C(=O)NC[C@@H](F)C(C)(C)O)c1` [Example 835, (R)-6-(3-cyanopyrrolo[1,2-b]pyridazin-7-yl)-4-((5-ethoxypyridin-3-yl)amino)-N-(2-fluoro-3-hydroxy-3-methylbutyl)nicotinamide]: the negative-log IC50 (pIC50) in assay [1] was more than 9.00. Besides, in assay [2], the negative-log EC50 (pEC50) was 8.10.

In assay [1], `CCOc1cccc(Nc2cc(-c3ccc4cc(C#N)cnn34)ncc2C(=O)NC[C@@H](F)C(C)(C)O)c1` [Example 836, (R)-6-(3-cyanopyrrolo[1,2-b]pyridazin-7-yl)-4-((3-ethoxyphenyl)amino)-N-(2-fluoro-3-hydroxy-3-methylbutyl)nicotinamide] gave a pIC50 of 8.70. Further, the pEC50 in assay [2] was 7.37.

As for `CC(C)Oc1cccc(Nc2cc(-c3ccc4cc(C#N)cnn34)ncc2C(=O)NC[C@@H](F)C(C)(C)O)c1` [Example 837, (R)-6-(3-cyanopyrrolo[1,2-b]pyridazin-7-yl)-N-(2-fluoro-3-hydroxy-3-methylbutyl)-4-((3-isopropoxyphenyl)amino)nicotinamide], in assay [1], the pIC50 is 8.52. For the same compound, the pEC50 in assay [2] is 6.93.
